Key:
[1] = Selectivity index, ratio of CTD50 for MDCK cells to ED50 for Influenza A virus (A/Puerto Rico/8/34(H1N1)); type: toxicity; conditions: dog, read-out: Selectivity Index
[2] = Cytotoxicity against MDCK cells assessed as cell death by MTT assay; type: cell-based, Canis lupus familiaris; conditions: dog, read-out: CTD50

SMILES	selectivity ratio [1]	CC50 [2]
CC(N)[C@@H]1C[C@H]2CC[C@]1(C)C2 (stereo not given in full)	6	1110 µM
CC(C)(C)OC(=O)Cn1cc(COCC/N=C2\C[C@H]3CC[C@]2(C)C3(C)C)nn1	8	204 µM
C#CCOCC/N=C1\C[C@H]2CC[C@]1(C)C2(C)C	2	971 µM
CCCCc1cn(CC/N=C2\C[C@H]3CC[C@]2(C)C3(C)C)nn1	5	303 µM
CC1(C)[C@@H]2CC[C@@]1(C)/C(=N/CCOCc1cn(CCO)nn1)C2	> 19	> 938 µM
CC1(C)[C@@H]2CC[C@@]1(C)/C(=N/CCn1cc([Si](C)(C)C)nn1)C2	< 1	32 µM
CC1(C)[C@@H]2CC[C@@]1(C)/C(=N/CCn1cc(CCO)nn1)C2	> 19	> 1030 µM
COCCNCCc1cn(CC/N=C2\C[C@H]3CC[C@]2(C)C3(C)C)nn1	34	865 µM
CCOP(=O)(CCCCn1cc(COCC/N=C2\C[C@H]3CC[C@]2(C)C3(C)C)nn1)OCC	> 2	> 641 µM
CC1(C)[C@@H]2CC[C@@]1(C)/C(=N/CCN=[N+]=[N-])C2	> 3	> 1360 µM
CC1(C)[C@@H]2CC[C@@]1(C)/C(=N\CCOCc1cn(CC/N=C3\C[C@H]4CC[C@]3(C)C4(C)C)nn1)C2	1	117 µM
CCOP(=O)(OCC)C(Cc1cn(CC/N=C2\C[C@H]3CC[C@]2(C)C3(C)C)nn1)P(=O)(OCC)OCC	2	92 µM
CC(C)(O)Cc1cn(CC/N=C2\C[C@H]3CC[C@]2(C)C3(C)C)nn1	> 31	> 987 µM
CC1(C)[C@@H]2CC[C@@]1(C)/C(=N/CCOCc1cn(-c3ccccc3)nn1)C2	2	138 µM
CNCc1cn(CC/N=C2\C[C@H]3CC[C@]2(C)C3(C)C)nn1	< 2	195 µM
CC1(C)[C@@H]2CC[C@@]1(C)/C(=N/CCn1cc(CO)nn1)C2	2	> 1090 µM
CCOC(=O)C(C)(Cc1cn(CC/N=C2\C[C@H]3CC[C@]2(C)C3(C)C)nn1)P(=O)(OCC)OCC (stereo not given in full)	2	> 555 µM
NC12CC3CC(CC(C3)C1)C2 [AMANTADINE]	4	266 µM
CC(N)C12CC3CC(CC(C3)C1)C2 (stereo not given) [RIMANTADINE]	5	344 µM
CC1(C)[C@@H]2CC[C@@]1(C)/C(=N/CCn1cc(CCN3CCOCC3)nn1)C2	> 18	> 836 µM
